Measured values: the supplement of paper PMC10307832

Assays:
Assay in all cases: relative viability (nuclei count vs DMSO), 5 days (fraction); higher = more cells survive
BX 795 + Trametinib = compound: O=C(NCCCNc1nc(Nc2cccc(NC(=O)N3CCCC3)c2)ncc1I)c1cccs1 [BX 795] + CC(=O)Nc1cccc(-n2c(=O)n(C3CC3)c(=O)c3c(Nc4ccc(I)cc4F)n(C)c(=O)c(C)c32)c1 [Trametinib] (partner 0.02 µM)
How it was run: (§1)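 Relative viability is defined as nuclei in treated wells over nuclei in vehicle wells. Duplicate plates were run and medians reported. Lung cancer cell lines in 1536-well plates were dosed by pin tool one day after seeding, with one drug or with a fixed anchor-drug dose plus five library-drug doses (not always all listed) in √10 steps, and nuclei were counted after 5 days.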

BX 795 + Tozasertib = compound: O=C(NCCCNc1nc(Nc2cccc(NC(=O)N3CCCC3)c2)ncc1I)c1cccs1 [BX 795] + Cc1cc(Nc2cc(N3CCN(C)CC3)nc(Sc3ccc(NC(=O)C4CC4)cc3)n2)n[nH]1 [Tozasertib] (partner 0.1 µM)
How it was run: as §1

BX 795 + Alpelisib = compound: O=C(NCCCNc1nc(Nc2cccc(NC(=O)N3CCCC3)c2)ncc1I)c1cccs1 [BX 795] + Cc1nc(NC(=O)N2CCC[C@H]2C(N)=O)sc1-c1ccnc(C(C)(C)C(F)(F)F)c1 [Alpelisib] (partner 2 µM)
How it was run: as §1

BX 795 + Phenformin = compound: O=C(NCCCNc1nc(Nc2cccc(NC(=O)N3CCCC3)c2)ncc1I)c1cccs1 [BX 795] + N=C(N)NC(=N)NCCc1ccccc1 [Phenformin] (partner 250 µM)
How it was run: as §1

BX 795 + Olaparib = compound: O=C(NCCCNc1nc(Nc2cccc(NC(=O)N3CCCC3)c2)ncc1I)c1cccs1 [BX 795] + O=C(c1cc(Cc2n[nH]c(=O)c3ccccc23)ccc1F)N1CCN(C(=O)C2CC2)CC1 [Olaparib] (partner 8 µM)
How it was run: as §1

| Cell Line | relative viability (BX 795 + Trametinib; first compound 0.04 µM) | relative viability (BX 795 + Trametinib; first compound 0.1265 µM) | relative viability (BX 795 + Trametinib; first compound 0.4 µM) | relative viability (BX 795 + Trametinib; first compound 1.265 µM) | relative viability (BX 795 + Tozasertib; first compound 0.04 µM) | relative viability (BX 795 + Tozasertib; first compound 0.1265 µM) | relative viability (BX 795 + Tozasertib; first compound 0.4 µM) | relative viability (BX 795 + Tozasertib; first compound 1.265 µM) | relative viability (BX 795 + Alpelisib; first compound 0.04 µM) | relative viability (BX 795 + Alpelisib; first compound 0.1265 µM) | relative viability (BX 795 + Alpelisib; first compound 0.4 µM) | relative viability (BX 795 + Alpelisib; first compound 1.265 µM) | relative viability (BX 795 + Phenformin; first compound 0.04 µM) | relative viability (BX 795 + Phenformin; first compound 0.1265 µM) | relative viability (BX 795 + Phenformin; first compound 0.4 µM) | relative viability (BX 795 + Phenformin; first compound 1.265 µM) | relative viability (BX 795 + Olaparib; first compound 0.04 µM) | relative viability (BX 795 + Olaparib; first compound 0.1265 µM) | relative viability (BX 795 + Olaparib; first compound 0.4 µM) | relative viability (BX 795 + Olaparib; first compound 1.265 µM) |
| --- | --- | --- | --- | --- | --- | --- | --- | --- | --- | --- | --- | --- | --- | --- | --- | --- | --- | --- | --- | --- |
| NCI-H647 | 0.447 | 0.504 | 0.448 | 0.344 | 0.256 | 0.352 | 0.218 | 0.233 | 1.13 | 1.18 | 1.31 | 0.522 | 0.456 | 0.541 | 0.572 | 0.266 | 0.406 | 0.565 | 0.288 | 0.232 |
| NCI-H2126 | 0.611 | 0.537 | 0.685 | 0.534 | 0.85 | 0.883 | 0.831 | 0.758 | 0.768 | 0.763 | 0.876 | 0.728 | 0.534 | 0.542 | 0.605 | 0.498 | 0.982 | 0.909 | 1 | 0.893 |
| LOU-NH91 | 0.724 | 0.788 | 0.763 | 0.734 | 0.699 | 0.609 | 0.525 | 0.568 | 0.695 | 0.666 | 0.621 | 0.741 | 0.861 | 0.713 | 0.658 | 0.697 | 0.9 | 0.918 | 0.754 | 0.902 |
| NCI-H1755 | 0.849 | 0.763 | 0.793 | 0.665 | 0.681 | 0.481 | 0.553 | 0.508 | 0.929 | 0.9 | 0.93 | 0.63 | 0.618 | 0.564 | 0.592 | 0.546 | 0.961 | 0.858 | 0.956 | 0.725 |
| NCI-H1651 | 0.847 | 0.87 | 0.879 | 0.824 | 0.711 | 0.709 | 0.59 | 0.641 | 0.933 | 1.02 | 0.881 | 0.782 | 0.322 | 0.356 | 0.312 | 0.24 | 0.193 | 0.166 | 0.167 | 0.163 |
| CAL-12T | 0.273 | 0.298 | 0.322 | 0.24 | 0.323 | 0.288 | 0.298 | 0.263 | 1.12 | 1.5 | 1.29 | 0.285 | 0.599 | 0.591 | 0.447 | 0.212 | 0.877 | 0.769 | 0.725 | 0.41 |
| NCI-H460 | 0.265 | 0.138 | 0.13 | 0.12 | 0.497 | 0.44 | 0.0824 | 0.184 | 0.475 | 0.457 | 0.498 | 0.245 | 0.5 | 0.609 | 0.415 | 0.372 | 0.371 | 0.427 | 0.154 | 0.346 |
| SK-MES-1 | 0.574 | 0.46 | 0.519 | 0.396 | 0.883 | 0.832 | 0.905 | 0.223 | 1.02 | 0.909 | 0.925 | 0.641 | 0.691 | 0.628 | 0.592 | 0.419 | 0.746 | 0.646 | 0.688 | 0.383 |
